Assay results from US6071902A, “Method for treating excessive aggression” (Eli Lilly and Company, priority 1997, dated 2000).

Tests used:
[1] = system: muscarinic cholinergic receptor; experiment: pharmacological studies, muscarinic cholinergic receptor activity
[2] = system: 5-HT1C receptor; experiment: pharmacological studies, 5-HT1C receptor activity
[3] = detection of radiolabelled olanzapine in saliva; assay type: in vivo
Protocol: For example, in the treatment of adult humans, dosages of from 5 to 20 mg per day may be used. A once a day dosage is normally sufficient, although divided doses may be administered. For treatment of extreme aggression, a dose range of from 5 to 20 mg per day is suitable.

[4] = system: excessive aggression; experiment: double-blind multicenter clinical trial, olanzapine or placebo; assay type: in vivo, human; details: patients randomized to olanzapine or placebo
Excerpt: A double-blind multicenter clinical trial was designed to assess the safety and efficacy of olanzapine. Patients were randomized to olanzapine or placebo.

Cc1cc2c(s1)Nc1ccccc1N=C2N1CCN(C)CC1 [olanzapine, 2-methyl-4-(4-methyl-1-piperazinyl)-10H-thieno[2,3-b][1,5]benzodiazepine]
muscarinic cholinergic receptor activity [1]: has muscarinic cholinergic receptor activity
activity at the 5-HT1C receptor [2]: active
detection in saliva [3]: can be detected in the saliva
efficacy in treatment of excessive aggression [4]: can be useful for the treatment of excessive aggression
